Results from patent US11365199B2, “Pyrazole compounds as modulators of FSHR and uses thereof” (Merck Patent GmbH, priority 2013, dated 2022).

Biological target: T1, FSHR (Homo sapiens, UniProt P23945)
T1 construct: expressed in transfected cells; host or cells: CHO (Cho-FSHR-LUC-1-1-43)
T1 sequence (P23945 18-695): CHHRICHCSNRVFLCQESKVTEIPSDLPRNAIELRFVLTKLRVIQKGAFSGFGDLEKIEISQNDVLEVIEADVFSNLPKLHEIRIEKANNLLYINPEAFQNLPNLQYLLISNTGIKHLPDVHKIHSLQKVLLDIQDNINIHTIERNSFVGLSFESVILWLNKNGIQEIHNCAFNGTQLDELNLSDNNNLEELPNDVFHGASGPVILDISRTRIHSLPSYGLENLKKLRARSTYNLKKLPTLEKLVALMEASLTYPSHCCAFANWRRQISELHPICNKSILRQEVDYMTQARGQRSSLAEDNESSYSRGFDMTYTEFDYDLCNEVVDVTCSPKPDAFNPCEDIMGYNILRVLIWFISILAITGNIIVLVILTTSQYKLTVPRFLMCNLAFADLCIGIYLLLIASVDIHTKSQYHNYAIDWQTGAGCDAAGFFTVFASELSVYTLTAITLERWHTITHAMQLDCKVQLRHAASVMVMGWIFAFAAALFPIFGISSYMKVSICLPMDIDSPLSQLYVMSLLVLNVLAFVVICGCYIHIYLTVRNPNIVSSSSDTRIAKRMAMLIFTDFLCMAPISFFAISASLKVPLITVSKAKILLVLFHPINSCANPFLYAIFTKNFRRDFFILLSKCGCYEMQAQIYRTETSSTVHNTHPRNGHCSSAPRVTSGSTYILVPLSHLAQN
Experiment: EC50 of cyclic AMP production in CHO FSHR cells + EC20 FSH (Assay A)
Assay type: cell-based
Conditions: CHO FSHR cells + EC20 FSH, cAMP HTRF; read-out: Assay A: EC50 of cyclic AMP production
Summary of the method: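 cAMP HTRF read-out (665 nm/620 nm ratio) after 1 h at 37° C of Cho-FSHR-LUC cells treated with serially diluted test compound plus EC20 FSH ([…]) and IBMX (final 200 μM). Responses given as percent of maximal FSH-standard effect.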

| Structure (SMILES) | EC50 [nM] |
| --- | --- |
| COc1cc2c(cc1C=C(C)C)-c1c(c(C(=O)N(C)C(C)(C)C)nn1-c1nccs1)CO2 [Compound 89, 7-Methoxy-8-(2-methyl-propenyl)-1-thiazol-2-yl-1,4-dihydro-chromeno[4,3-c]pyrazole-3-carboxylic Acid tert-butyl-methyl-amide] | < 100 |
| COc1cc2c(cc1-c1ccn(C)n1)-c1c(c(C(=O)N3CCN(C(C)=O)CC3(C)C)nn1-c1ccsc1)CO2 [Compound 216] | < 100 |
| COc1cc2c(cc1-c1ccn(C(C)C)n1)-c1c(c(C(=O)N3CCOCC3(C)C)nn1-c1ccsc1)CO2 [Compound 195, (3,3-Dimethyl-morpholin-4-yl)-[8-(1-isopropyl-1H-pyrazol-3-yl)-7-methoxy-1-thiophen-3-yl-1,4-dihydro-chromeno[4,3-c]pyrazol-3-yl]-methanone] | < 100 |
| COc1cc2c(cc1C=C(C)C)-c1c(c(C(=O)N(C)CCCN(C)C(C)=O)nn1-c1ccsc1)CO2 [Compound 32] | 100 to 1000 |
| COc1cc2c(cc1C=C(C)C)-c1c(c(C(=O)N3CCC(O)C3)nn1-c1ccsc1)CO2 (stereo not shown) [Compound 47, (3-Hydroxy-pyrrolidin-1-yl)-[7-methoxy-8-(2-methyl-propenyl)-1-thiophen-3-yl-1,4-dihydro-chromeno[4,3-c]pyrazol-3-yl]-methanone] | 1000 to 5000 |
| CNC(=O)c1nn(-c2ccsc2)c2c1COc1cc(OC)c(-c3cn[nH]c3)cc1-2 [Compound 22, 7-Methoxy-8-(1H-pyrazol-4-yl)-1-thiophen-3-yl-1,4-dihydro-chromeno[4,3-c]pyrazole-3-carboxylic Acid Methylamide] | 1000 to 5000 |
| COc1cc2c(cc1-c1ccn(C)c1)-c1c(c(C(=O)NC3CC(O)C3)nn1-c1ccsc1)CO2 (stereo not shown) [Compound 136, 7-Methoxy-8-(1-methyl-1H-pyrrol-3-yl)-1-thiophen-3-yl-1,4-dihydro-chromeno[4,3-c]pyrazole-3-carboxylic acid (3-hydroxy-cyclobutyl)-amide] | > 5000 |
| COc1cc2c(cc1S(=O)(=O)CC(C)C)-c1c(c(C(=O)N3CCOCC3(C)C)nn1-c1ccsc1)CO2 [Compound 127, (3,3-Dimethyl-morpholin-4-yl)-[7-methoxy-8-(2-methyl-propane-1-sulfonyl)-1-thiophen-3-yl-1,4-dihydro-chromeno[4,3-c]pyrazol-3-yl]-methanone] | > 5000 |
| COc1cc2c(cc1-c1cn[nH]c1)-c1c(c(C(=O)N3CCOCC3(C)C)nn1-c1ccsc1)CO2 [Compound 80, (3,3-Dimethyl-morpholin-4-yl)-[7-methoxy-8-(1H-pyrazol-4-yl)-1-thiophen-3-yl-1,4-dihydro-chromeno[4,3-c]pyrazol-3-yl]-methanone] | < 100 |

More lines, now with the values ahead:

| EC50 [nM] | Structure (SMILES) |
| --- | --- |
| 100 to 1000 | COc1cc2c(cc1-c1ccc(F)s1)-c1c(c(C(=O)N(C)C(C)(C)C)nn1-c1ccsc1)CO2 [Compound 54, 8-(5-Fluoro-thiophen-2-yl)-7-methoxy-1-thiophen-3-yl-1,4-dihydro-chromeno[4,3-c]pyrazole-3-carboxylic acid tert-butyl-methyl-amide] |
| < 100 | COc1cc2c(cc1-c1c(C)cnn1C)-c1c(c(C(=O)N(C)C(C)(C)C)nn1-c1ccsc1)CO2 [Compound 76, 8-(2,4-Dimethyl-2H-pyrazol-3-yl)-7-methoxy-1-thiophen-3-yl-1,4-dihydro-chromeno[4,3-c]pyrazole-3-carboxylic acid tert-butyl-methyl-amide] |
| < 100 | COc1cc2c(cc1-c1sc(C)nc1C)-c1c(c(C(=O)N(C)C(C)(C)C)nn1-c1ccsc1)CO2 [Compound 53, 8-(2,4-Dimethyl-thiazol-5-yl)-7-methoxy-1-thiophen-3-yl-1,4-dihydro-chromeno[4,3-c]pyrazole-3-carboxylic acid tert-butyl-methyl-amide] |
| < 100 | COc1cc2c(cc1C1=CCCO1)-c1c(c(C(=O)N(C)C(C)(C)C)nn1-c1ccsc1)CO2 [Compound 74, 8-(4,5-Dihydro-furan-2-yl)-7-methoxy-1-thiophen-3-yl-1,4-dihydro-chromeno[4,3-c]pyrazole-3-carboxylic acid tert-butyl-methyl-amide] |
